Results taken from patent US5622960A, “Topoisomerase II inhibitors and therapeutic uses therefor” (The United States of America as represented by the …, priority 1992, dated 1997).

Key:
[1] = test system: Topoisomerase II; assay: topoisomerase II inhibition: drug-induced DNA cleavage in presence of HL-60 extract or purified top 2; format: biochemical; details: for top 2 inhibition / top 2 activity (in words): DNA cleavage assays; for Topoisomerase II inhibition: class symbols without legend, HL-60 extract or purified top 2; for effect of hydroxyl substitution on top 2 activity: 1 versus 6, DMDP versus DMEP
Description: Because the azatoxin skeleton is synthetically accessible, a large number of derivatives are readily prepared and screened for top 2 inhibitory activity in accordance with the present invention. Such screening can be effected by means of an in vitro assay which employs purified top 2 and ^32 P-end-labelled DNA. In such an assay, top 2 inhibition by a test substance results in DNA fragmentation which can be detected by agarose gel electrophoresis, as described by Fesen and Pommier, J. Biol. Chem. 19:11354-59 (1989); by the filter-binding assay described by Pommier et al., Biochem. 24:6410-16 (1985); or by the sodium dodecylsulfate precipitation assay employed by Nelson et al., Proc. Nat'l Acad. Sci. USA81: 1361-65 (1984).
(§1) Chemicals, and enzymes: Azatoxin and its derivatives, as well as the demethyldesoxypodophyllotoxin (DMDP) and demethylepipodophyllotoxin (DMEP), were synthesized by conventional methods. The compounds m-AMSA and mitoxantrone were obtained from the Drug Synthesis and Chemistry Branch, National Cancer Institute, Bethesda, Md. The compounds VP-16 and VM-26 were obtained from Bristol-Myers Company (Wallingford, Conn.). Drug stock solutions were made in dimethylsulfoxide at 10 mM. Further dilutions were made in distilled water. Various other reagents, including simian virus 40 (SV40) and c-myc human DNA inserts in plasmid pBR322, restriction endonucleases, DNA topoisomerase I, T4 polynucleotide kinase, calf intestine phosphatase, agarose and polyacrylamide/bis, were purchased from Bethesda Research Laboratories (Gaithersburg, Md.), from the American Type Culture Collection (Rockville, Md.) or from New England Biolabs (Beverly, Mass.). [Gamma-^32 P]ATP was purchased from New England Nuclear Research Products (Boston, Mass.).
(§2) DNA topoisomerase II was purified from mouse leukemia L1210 cell nuclei as described, for example, by Pommier et al. (1985), supra, and was stored at -70° C. in 40% (v/v) glycerol, 0.35 M NaCl, 5 mM MgCl2, 1 mM KH2 PO4, 0.2 mM dithiothreitol and 0.1 mM phenylmethanesulfonyl fluoride (pH 6.4). The purified enzyme yielded a single 170 kDa band after silver staining of SDS-polyacrylamide gels, in accordance with the description of Pommier et al., Cancer Res. 46: 3075-81 (1986).
(§3) Preparation of end-labeled DNA fragments: DNA fragments were 5' end-labeled as described, for example, by Fesen and Pommier (1989), supra. Briefly, native DNA was first linearized with a restriction enzyme, […] then the 5'-DNA termini were dephosphorylated with calf alkaline phosphatase and labeled with [gamma-^32 P]ATP using T4 polynucleotide kinase. For double-strand breaks assays using HL-60 nuclear extract, SV40 DNA was digested with BclI endonuclease and labeled at both DNA termini. For sequencing experiments, SV40 and c-myc DNAs were first 5'-end labeled at the XhoII and XbaI restriction sites, respectively. Then, in order to generate uniquely 5'-end-labeled fragments, labeled DNA was subjected to a second enzyme digestion, PflMI for SV40, and EcoRI plus HindIII for c-myc DNA. The resulting DNA fragments were separated by agarose gel electrophoresis and isolated by electroelution. Purification by phenol-chloroform extraction and ethanol precipitation were included between each step and at the end of the labeling procedures, pursuant to Pommier et al., J. Molec. Biol. 222: 909-24 (1991).
Topoisomerase II-induced DNA cleavage reactions: DNA fragments were equilibrated with or without drug in 10 mM Tris-HCl, pH 7.5, 50 mM KCl, 5 mM MgCl2 0.1 mM EDTA, 1 mM ATP and 15 μg/ml bovine serum albumin for 5 minutes before addition of purified topoisomerase II (40 to 70 ng) or HL-60 nuclear extract in 20 μl final reaction volume. Reactions were stopped by adding sodium dodecyl sulfate (SDS) to a final concentration of 1% and proteinase K to 400 μg/ml, followed by incubation for 1 hour at 40° C. […]

[2] = test system: SV40 DNA; assay: DNA unwinding (intercalation) assay with excess topoisomerase I; format: biochemical, simian virus 40; details: relaxed SV40 DNA, excess topoisomerase I; concentrations as high as 1 mM
Protocol: To assess DNA unwinding, see Pommier et al., Nucleic Acids Res. 15: 6713-31(1987), the DNA was relaxed first by treatment for 15 minutes with top 1 (20 units), after which the test agent was added. These steps were carried out at 37° C. DNA-agent-top 1 mixtures were incubated for an additional 30 minutes and then stopped as described above. Samples were then subjected to agarose gel electrophoresis as described above.
This was also the case for the 2 azatoxin isomers, 8 and 10, and for the demethylepipodophyllotoxins, DMDP and DMEP. Similar results were obtained with supercoiled DNA.

[3] = biological target: T1, purified murine leukemia top 2 (Mus musculus, UniProt Q01320); assay: Sequencing of topoisomerase II cleavage sites (SV40 and c-myc DNA); format: biochemical
T1 construct: single 170 kDa band on silver-stained SDS-PAGE
T1 sequence (Q01320 whole entry): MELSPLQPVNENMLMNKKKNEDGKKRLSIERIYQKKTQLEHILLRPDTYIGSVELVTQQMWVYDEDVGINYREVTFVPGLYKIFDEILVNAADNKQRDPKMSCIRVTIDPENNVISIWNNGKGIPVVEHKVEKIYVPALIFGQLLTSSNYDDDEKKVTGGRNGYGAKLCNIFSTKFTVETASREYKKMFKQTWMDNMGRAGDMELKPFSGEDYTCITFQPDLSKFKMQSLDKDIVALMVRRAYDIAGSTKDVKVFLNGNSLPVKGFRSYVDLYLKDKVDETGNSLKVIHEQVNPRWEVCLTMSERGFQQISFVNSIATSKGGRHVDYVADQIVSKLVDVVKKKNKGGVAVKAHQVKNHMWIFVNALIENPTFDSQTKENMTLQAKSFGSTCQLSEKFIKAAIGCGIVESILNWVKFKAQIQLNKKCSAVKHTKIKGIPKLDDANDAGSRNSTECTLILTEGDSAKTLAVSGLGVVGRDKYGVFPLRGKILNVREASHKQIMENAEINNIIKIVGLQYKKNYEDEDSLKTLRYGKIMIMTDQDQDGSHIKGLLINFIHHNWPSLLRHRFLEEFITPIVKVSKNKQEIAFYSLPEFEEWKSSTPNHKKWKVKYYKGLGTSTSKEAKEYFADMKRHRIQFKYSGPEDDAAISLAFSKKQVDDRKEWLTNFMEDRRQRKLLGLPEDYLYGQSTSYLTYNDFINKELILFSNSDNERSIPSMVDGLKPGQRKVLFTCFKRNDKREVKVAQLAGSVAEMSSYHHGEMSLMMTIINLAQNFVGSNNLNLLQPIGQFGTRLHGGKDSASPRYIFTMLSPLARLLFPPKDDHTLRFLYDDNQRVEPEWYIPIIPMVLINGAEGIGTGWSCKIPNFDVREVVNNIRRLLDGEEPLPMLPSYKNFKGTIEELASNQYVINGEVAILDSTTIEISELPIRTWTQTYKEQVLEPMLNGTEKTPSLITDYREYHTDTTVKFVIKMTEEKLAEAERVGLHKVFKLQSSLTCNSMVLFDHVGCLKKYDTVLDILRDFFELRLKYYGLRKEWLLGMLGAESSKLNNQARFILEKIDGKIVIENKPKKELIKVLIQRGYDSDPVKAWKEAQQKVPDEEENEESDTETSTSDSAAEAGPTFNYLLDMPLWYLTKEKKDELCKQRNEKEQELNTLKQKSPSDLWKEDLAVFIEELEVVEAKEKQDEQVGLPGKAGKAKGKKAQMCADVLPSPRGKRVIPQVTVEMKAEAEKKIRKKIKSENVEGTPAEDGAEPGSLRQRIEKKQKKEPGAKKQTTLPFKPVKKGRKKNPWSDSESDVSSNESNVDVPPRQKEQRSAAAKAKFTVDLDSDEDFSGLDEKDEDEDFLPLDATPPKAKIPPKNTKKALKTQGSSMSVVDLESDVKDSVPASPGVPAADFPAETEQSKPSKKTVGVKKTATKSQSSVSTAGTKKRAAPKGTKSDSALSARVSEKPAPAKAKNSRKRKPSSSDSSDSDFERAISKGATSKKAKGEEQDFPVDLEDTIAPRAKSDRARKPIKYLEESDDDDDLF
Protocol: as §1, §2, §3
Topoisomerase II-induced DNA cleavage reactions: DNA fragments were equilibrated with or without drug in 10 mM Tris-HCl, pH 7.5, 50 mM KCl, 5 mM MgCl2 0.1 mM EDTA, 1 mM ATP and 15 μg/ml bovine serum albumin for 5 minutes before addition of purified topoisomerase II (40 to 70 ng) or HL-60 nuclear extract in 20 μl final reaction volume. Reactions were stopped by adding sodium dodecyl sulfate (SDS) to a final concentration of 1% and proteinase K to 400 μg/ml, followed by incubation for 1 hour at 40° C.
For DNA sequence analysis, samples were precipitated with ethanol and resuspended in 2.5 μl loading buffer (80% formamide, 10 mM NaOH, 1 mM EDTA, 0.1% xylene cyanol and 0.1% bromophenol blue). Samples were heated to 90° C. and immediately loaded into DNA sequencing gels (6% polyacrylamide; 19:1, acrylamide:bis) containing 7M urea in (1×) TBE buffer. Electrophoresis was at 2500 V (60 W) for 4 hours. Gels were dried on 3M paper sheets and autoradiographed with Kodak XAR-2 film. See Pommier et al. (1991), supra.
Induction of top 2 cleavage by azatoxin was tested directly with the use of purified murine leukemia top 2. […] Sites of cleavage were also determined by DNA sequencing in the 5' flank of c-myc first intron.

[4] = test system: top 2 (HL-60 nuclear extract); assay: Induction of DNA double-strand breaks in SV40 DNA in presence of HL-60 nuclear extract; format: biochemical; details: up to 1 mM
Protocol: as §1
as §3, with “Purification by phenol-chloroform extraction and ethanol precipitation were included between each step and at the end of the labeling procedures, pursuant to Pommier et al., J. Molec. Biol. 222: 909-24 (1991).” left out
For agarose gel analysis, 3 μl (10×) loading buffer (0.3% bromophenol blue, 16% Ficoll, 10 mM Na2 HPO4) was added to each sample which was then heated at 65° C. for 1-2 minutes before loading into an agarose gel made in (1×) TBE (89 mM Tris, 89 mM boric acid, 2 mM EDTA, pH8), in accordance with Fesen & Pommier (1989), supra. […] The quantification of drug-induced DNA double-strand breaks in the presence of HL-60 nuclear extract was effected as described in the next paragraph.
Radioactive gels were counted in betascope 603 blot analyzer. […] Drug-induced cleavage was expressed as: [formula] where C. and T. are the counts for cleaved and total DNA, respectively, in presence of nuclear extract without drug.
Drug-induced DNA double-strand breaks were measured first in SV40 DNA in the presence of HL-60 nuclear extracts. […]

Row | SMILES | top 2 inhibition / top 2 activity (in words) [1] | Topoisomerase II inhibition [1] | DNA unwinding [2] | other results
1 | COc1cc([C@@H]2C3=C(C[C@H]4COC(=O)N42)c2cccc4cccc3c24)cc(OC)c1O (relative stereo) [Compound 7, 5,11a-trans-3-one-5,4, 11, 11a-tetrahydro-5-(3,5-dimethoxy-4-hydroxyphenyl)-1H, 10H-oxazol [3', 4':1,6]pyrido[1,2-b]acenapthylene] | inactive | .largecircle. | – | –
2 | COc1cc([C@@H]2c3c([nH]c4ccccc34)C[C@H]3COC(=O)N32)cc(OC)c1O (relative stereo) [Compound 8] | inactivity | .largecircle. | did not induce detectable DNA unwinding even at drug concentrations as high as 1 mM | –
3 | COc1cc([C@@H]2c3[nH]c4ccccc4c3C[C@H]3COC(=O)N32)ccc1O [Compound 2, 5R, 11aS-3-One-5,4,11,11a-tetrahydro-5-(3-methoxy-4-hydroxyphenyl)-1H, 6H-oxazolo[3', 4': 1.6]pyrido[3,4-b]indole] | – | .smallcircle. | – | factor of reduction of top 2 activity by monodemethoxylation of pendant ring ([1]; versus azatoxin): 10
4 | O=C1OC[C@@H]2Cc3c([nH]c4ccccc34)[C@@H](c3ccc(O)cc3)N12 [Compound 3, 5R, 11aS-3-one-5,4,11,11a-tetrahydro-5-(4-hydroxyphenyl)-1H, 6H-oxazolo[3',4':1,6]pyrido[3,4-b]indole] | abolished the top 2 activity | .largecircle. | – | –
5 | COc1cc([C@@H]2c3[nH]c4ccccc4c3C[C@H]3COC(=O)N32)cc(OC)c1OC [Compound 4, 5R,11aS-3-one-5,4,11,11a,tetrahydro-5-(3,4,5-trimethoxyphenyl)-1H, 6H-oxazolo[3',4':1,6]pyrido[3,4-b]indole] | – | .largecircle. | – | –
6 | CS(=O)(=O)Nc1ccc([C@@H]2c3[nH]c4ccccc4c3C[C@H]3COC(=O)N32)cc1 [Compound 5] | – | .largecircle. | – | –
7 | COc1cc([C@@H]2c3[nH]c4ccccc4c3[C@@H](O)[C@H]3COC(=O)N23)cc(OC)c1O [Compound 6, 5R,11R,11aS-3-One-11-hydroxy-5,4,11,11a-tetrahydro-5-(3,5-dimethoxy-4-hydroxyphenyl)-1H, 6H-oxazolo[3'4:1,6]pyrido[3,4-b]indole] | measurable but not strong top 2 activity | – | – | effect of hydroxyl substitution on top 2 activity [1]: significantly decreases top 2 activity
8 | COc1cc([C@@H]2c3[nH]c4ccccc4c3C[C@@H]3COC(=O)N32)cc(OC)c1O [Compound 9, 5R,11aR-3-One-5,4,11,11a-tetrahydro-5-(3,5-dimethoxy-4-hydroxyphenyl)-1H, 6H-oxazolo[3'4':1,6']pyrido[3,4-b]indole] | inactive | .largecircle. | – | –
9 | COc1cc([C@H]2c3[nH]c4ccccc4c3C[C@H]3COC(=O)N32)cc(OC)c1O [Compound 10, 5S, 11aS-3-One-5,4,11,11a-tetrahydro-5-(3,5-dimethoxy-4-hydroxyphenyl)-1H, GH-oxazolo[3'4':1,6]pyrido[3,4-b]indole] | inactive | .largecircle. | did not induce detectable DNA unwinding even at drug concentrations as high as 1 mM | –
10 | COc1cc([C@@H]2c3cc4c(cc3C[C@H]3COC(=O)[C@@H]32)OCO4)cc(OC)c1O [DMDP, 4'-demethyl-4-desoxypodophyllotoxin, reference compound] | – | – | did not induce detectable DNA unwinding even at drug concentrations as high as 1 mM | top 2 cleavage sites induced (number/amount) ([3]; SV40 and c-myc DNA, purified murine top 2): induced less cleavage that azatoxin; top 2 cleavage pattern ([3]; compared with other top 2 inhibitors): at distinct cleavages sites
11 | COc1cc([C@@H]2c3cc4c(cc3[C@@H](O)[C@H]3COC(=O)[C@H]23)OCO4)cc(OC)c1O [DMEP, 4'-demethylepipodophyllotoxin, reference compound] | – | – | did not induce detectable DNA unwinding even at drug concentrations as high as 1 mM | top 2 cleavage potency (in words) [3]: at least as potent as VP-16; effect of hydroxyl substitution on top 2 activity [1]: increases activity
12 | COc1cc([C@@H]2c3cc4c(cc3[C@@H](O[C@@H]3O[C@@H]5CO[C@@H](C)O[C@H]5[C@H](O)[C@H]3O)[C@H]3COC(=O)[C@H]23)OCO4)cc(OC)c1O [VP-16, etoposide, reference compound] | – | – | – | suppression of DNA cleavage at high drug concentrations [4]: not suppressed at high drug concentrations (up to 1 mM)
